From patent US11945822B2, “Pyrazolo-triazine and/or pyrazolo-pxrimidine derivatives as selective inhibitor of cyclin dependent kinase” (QURIENT CO., LTD., priority 2018, dated 2024)

Columns and labels:
[1] = target: T1, CDK7/Cyclin H/MNAT1 (Homo sapiens, UniProt P50613); test: Enzymatic assay for CDK7 (FRET based LANCE Ultra kinase assay); assay type: biochemical; settings: for IC50: read-out: CDK7 enzymatic activity (IC50 range)
T1 construct: purchased Invitrogen PR6749B
How it was run: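 Inhibition was measured at Km ATP by time-resolved FRET between a Eu anti-phospho antibody and a phosphorylated ULight peptide. The enzyme was the purified CDK7/cyclin complex, and data were curve-fitted.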

[2] = test system: MOLT-4; test: Cellular MOLT-4 viability assay (CellTiter-Glo, 72 hours); assay type: cell-based; settings: Homo sapiens, MOLT4 viability assay
How it was run: (§1)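 Growth inhibition is assessed over a 72-hour incubation at 37 °C in 5% CO2, relative to DMSO vehicle (final concentration less than 0.1%). Luminescence from CellTiter-Glo serves as the viability signal.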

[3] = test system: H460; test: Cellular H460 viability assay (CellTiter-Glo, 72 hours); assay type: cell-based; settings: Homo sapiens, NCI-H460
How it was run: as §1

[4] = target: T2, CDK5/p25 (Homo sapiens, UniProt Q00535); test: Enzymatic assay for CDK5 (FRET based LANCE Ultra kinase assay); assay type: biochemical; settings: read-out: CDK5 enzymatic activity (IC50 range)
T2 construct: purchased Invitrogen PR8543B
How it was run: (§2)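 LANCE Ultra TR-FRET: ULight-MBP peptide (68 nM) with ATP at Km, […], 60 min at 23° C. EDTA plus Eu-anti-phospho-MBP added, another 60 min, then 665/615 nm emission read. Compounds tested as 8-dose 4-fold DMSO dilutions.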

[5] = target: T3, CDK2/Cyclin A (Homo sapiens, UniProt P24941); test: Enzymatic assay for CDK2 (FRET based LANCE Ultra kinase assay); assay type: biochemical; settings: read-out: CDK2 enzymatic activity (IC50 range)
T3 construct: purchased Invitrogen PV6290
How it was run: as §2

[6] = test system: RPMI-8226; test: Cellular RPMI-8226 viability assay (CellTiter-Glo, 72 hours); assay type: cell-based; settings: Homo sapiens
How it was run: as §1

[7] = target: T4, CDK1/Cyclin B (Homo sapiens, UniProt P06493); test: Enzymatic assay for CDK1 (FRET based LANCE Ultra kinase assay); assay type: biochemical; settings: read-out: CDK1 enzymatic activity (IC50 range)
T4 construct: purchased Invitrogen PR4768C
How it was run: as §2

[8] = test system: MV4-11; test: Cellular MV4-11 viability assay (CellTiter-Glo, 72 hours); assay type: cell-based; settings: Homo sapiens
How it was run: as §1

T2 sequence (Q00535 whole entry): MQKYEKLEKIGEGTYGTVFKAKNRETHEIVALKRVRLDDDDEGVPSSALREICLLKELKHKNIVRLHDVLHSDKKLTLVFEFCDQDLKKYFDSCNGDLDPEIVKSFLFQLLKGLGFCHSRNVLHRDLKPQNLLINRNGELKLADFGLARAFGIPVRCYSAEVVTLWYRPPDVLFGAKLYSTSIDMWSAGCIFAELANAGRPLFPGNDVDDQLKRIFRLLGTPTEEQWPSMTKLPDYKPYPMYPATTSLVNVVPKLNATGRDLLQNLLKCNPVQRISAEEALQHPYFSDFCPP
T2 sequence (Q15078 99-307 partner limits assumed): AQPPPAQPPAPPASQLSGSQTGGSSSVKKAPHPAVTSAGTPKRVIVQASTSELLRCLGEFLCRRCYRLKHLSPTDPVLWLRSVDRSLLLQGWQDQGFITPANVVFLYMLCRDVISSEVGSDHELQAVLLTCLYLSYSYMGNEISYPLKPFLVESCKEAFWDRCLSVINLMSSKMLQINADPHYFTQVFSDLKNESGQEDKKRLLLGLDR
T4 sequence (P06493 whole entry): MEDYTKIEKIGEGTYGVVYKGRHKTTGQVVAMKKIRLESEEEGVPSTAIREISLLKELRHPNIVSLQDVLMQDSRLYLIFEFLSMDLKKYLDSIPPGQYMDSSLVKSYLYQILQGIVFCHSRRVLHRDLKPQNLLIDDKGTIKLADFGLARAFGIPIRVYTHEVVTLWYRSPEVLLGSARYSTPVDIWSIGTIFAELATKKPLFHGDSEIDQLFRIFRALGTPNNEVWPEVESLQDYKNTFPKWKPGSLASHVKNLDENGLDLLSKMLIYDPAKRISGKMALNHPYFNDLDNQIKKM
T4 sequence (P14635 whole entry partner): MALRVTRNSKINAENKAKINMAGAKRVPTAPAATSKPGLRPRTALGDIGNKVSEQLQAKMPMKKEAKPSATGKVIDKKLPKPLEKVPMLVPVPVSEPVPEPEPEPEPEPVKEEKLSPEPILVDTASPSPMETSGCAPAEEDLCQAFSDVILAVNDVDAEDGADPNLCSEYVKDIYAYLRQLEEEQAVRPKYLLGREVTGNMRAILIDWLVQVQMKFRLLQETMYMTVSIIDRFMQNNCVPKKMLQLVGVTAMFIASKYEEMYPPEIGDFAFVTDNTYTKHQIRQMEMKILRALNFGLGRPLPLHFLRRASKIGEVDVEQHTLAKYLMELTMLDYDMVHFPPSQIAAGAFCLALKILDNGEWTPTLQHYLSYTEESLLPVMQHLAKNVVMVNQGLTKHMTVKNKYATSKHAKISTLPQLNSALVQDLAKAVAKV
T1 sequence (P50613 whole entry): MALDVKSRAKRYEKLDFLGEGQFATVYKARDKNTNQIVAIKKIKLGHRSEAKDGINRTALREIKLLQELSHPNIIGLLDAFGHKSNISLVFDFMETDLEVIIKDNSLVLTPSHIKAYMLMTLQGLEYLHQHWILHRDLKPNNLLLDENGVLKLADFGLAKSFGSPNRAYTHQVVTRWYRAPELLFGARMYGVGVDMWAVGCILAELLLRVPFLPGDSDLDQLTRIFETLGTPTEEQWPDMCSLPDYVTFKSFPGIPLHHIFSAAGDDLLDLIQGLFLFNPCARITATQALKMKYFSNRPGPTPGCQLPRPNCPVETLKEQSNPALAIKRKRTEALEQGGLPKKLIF
T1 sequence (P51946 whole entry partner): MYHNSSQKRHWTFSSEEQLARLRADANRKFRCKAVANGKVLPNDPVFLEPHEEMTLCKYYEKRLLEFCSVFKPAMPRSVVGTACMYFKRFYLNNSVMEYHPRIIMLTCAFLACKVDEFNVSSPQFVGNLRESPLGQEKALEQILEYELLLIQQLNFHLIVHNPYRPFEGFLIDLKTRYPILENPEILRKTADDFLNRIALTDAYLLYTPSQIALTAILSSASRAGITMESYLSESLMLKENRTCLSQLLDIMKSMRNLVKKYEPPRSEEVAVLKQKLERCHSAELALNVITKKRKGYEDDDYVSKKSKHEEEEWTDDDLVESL
T1 sequence (P51948 whole entry partner): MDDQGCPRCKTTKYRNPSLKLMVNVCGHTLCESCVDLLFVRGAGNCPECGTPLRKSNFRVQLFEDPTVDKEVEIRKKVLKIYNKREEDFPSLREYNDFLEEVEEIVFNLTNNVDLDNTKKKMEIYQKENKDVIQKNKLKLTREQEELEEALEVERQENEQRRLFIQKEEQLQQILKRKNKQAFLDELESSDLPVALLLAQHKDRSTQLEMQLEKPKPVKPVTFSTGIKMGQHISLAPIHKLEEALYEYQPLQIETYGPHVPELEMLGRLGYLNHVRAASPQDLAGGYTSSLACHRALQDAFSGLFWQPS

Structure (SMILES) | CDK1/CDK7: Selectivity of CDK7 inhibition over CDK1 inhibition [1] | CDK2/CDK7: Selectivity of CDK7 inhibition over CDK2 inhibition [1] | CDK5/CDK7: Selectivity of CDK7 inhibition over CDK5 inhibition [1] | IC50 [1] [µM] | IC50 [2] [µM] | IC50 [3] [µM] | IC50 [4] [µM] | IC50 [5] [µM] | IC50 [6] [µM] | IC50 [7] [µM] | IC50 [8] [µM]
CC(C)c1cnn2c(NCc3ccccc3Oc3ccccc3)nc(N3CCC(N)CC3)nc12 [Compound 56] | B (B=less than 200 fold, but greater than 20 fold) | B (B=less than 200 fold, but greater than 20 fold) | C (C=less than 20 fold) | < 0.1 | 1 to 10 | < 1 | 0.1 to 1 | > 1 | 1 to 10 | > 1 | 
CC(C)c1cnn2c(NCc3ccccc3Nc3ccccc3)nc(N3CCC(N)CC3)nc12 [Compound 61] | B (B=less than 200 fold, but greater than 20 fold) | B (B=less than 200 fold, but greater than 20 fold) | C (C=less than 20 fold) | < 0.1 | 1 to 10 | < 1 | 0.1 to 1 | 0.1 to 1 | 1 to 10 | > 1 | 
CC(C)c1cnn2c(NCc3ccccc3N(C)c3ccccc3)nc(N3CCC(N)CC3)nc12 [Compound 63] | B (B=less than 200 fold, but greater than 20 fold) | B (B=less than 200 fold, but greater than 20 fold) | B (B=less than 200 fold, but greater than 20 fold) | < 0.1 | > 10 | < 1 | 0.1 to 1 | 0.1 to 1 | 1 to 10 | 0.1 to 1 | 
CC(C)c1cnn2c(NCc3cccc4c3N(C)C(=O)CC4)nc(N3CCC(N)CC3)nc12 [Compound 69] | B (B=less than 200 fold, but greater than 20 fold) | B (B=less than 200 fold, but greater than 20 fold) | C (C=less than 20 fold) | < 0.1 | 1 to 10 | < 1 | < 0.1 | < 0.1 | < 1 | 0.1 to 1 | 
CC(C)c1cnn2c(NCc3cccc4ccc(C5CC5)nc34)nc(N3CCC(N)CC3)nc12 [Compound 71] | B (B=less than 200 fold, but greater than 20 fold) | B (B=less than 200 fold, but greater than 20 fold) | B (B=less than 200 fold, but greater than 20 fold) | < 0.1 | 1 to 10 | 1 to 10 | 0.1 to 1 | > 1 | 1 to 10 | > 1 | 1 to 10
CC(C)c1cnn2c(NCc3ccccc3N3CCc4ccccc43)nc(N3CCC(N)CC3)nc12 [Compound 76] | A (A=greater than 200 fold) | B (B=less than 200 fold, but greater than 20 fold) | B (B=less than 200 fold, but greater than 20 fold) | < 0.1 | 1 to 10 | < 1 | 0.1 to 1 | > 1 | < 1 | > 1 | 
CC(C)c1cnn2c(NCc3ccccc3-c3ncc4ccccc4n3)nc(N3CCC(N)CC3)nc12 [Compound 77] | A (A=greater than 200 fold) | B (B=less than 200 fold, but greater than 20 fold) | B (B=less than 200 fold, but greater than 20 fold) | < 0.1 | 1 to 10 | < 1 | 0.1 to 1 | 0.1 to 1 | < 1 | 0.1 to 1 | < 1
CC(C)c1cnn2c(NCc3ccccc3-c3cc4ccccc4cn3)nc(N3CCC(N)CC3)nc12 [Compound 78] | A (A=greater than 200 fold) | B (B=less than 200 fold, but greater than 20 fold) | B (B=less than 200 fold, but greater than 20 fold) | < 0.1 | 1 to 10 | < 1 | < 0.1 | 0.1 to 1 | < 1 | 0.1 to 1 | < 1
CC(C)c1cnn2c(NCc3ccccc3-c3nccc4cc(NC(=O)CCCN(C)C)ccc34)nc(N3CCC(N)CC3)nc12 [Compound 92] | A (A=greater than 200 fold) | A (A=greater than 200 fold) | A (A=greater than 200 fold) | < 0.1 | > 10 |  | > 1 | > 1 | 1 to 10 | > 1 | < 1
CC(C)c1cnn2c(NCc3ccccc3-c3nc4ccccc4n3C)nc(N3CCC(N)CC3)nc12 [Compound 96] | A (A=greater than 200 fold) | A (A=greater than 200 fold) | B (B=less than 200 fold, but greater than 20 fold) | < 0.1 | 1 to 10 | < 1 | 0.1 to 1 | > 1 | < 1 | > 1 | 
CC(C)c1cnn2c(NCc3ccccc3-n3cc4cc(Cl)ccc4n3)nc(N3CCC(N)CC3)nc12 [Compound 103] | A (A=greater than 200 fold) | B (B=less than 200 fold, but greater than 20 fold) | B (B=less than 200 fold, but greater than 20 fold) | < 0.1 | 1 to 10 | < 1 | 0.1 to 1 | 0.1 to 1 | < 1 | > 1 | < 1
CCCc1ccc2nn(-c3ccccc3CNc3nc(N4CCC(N)CC4)nc4c(C(C)C)cnn34)cc2c1 [Compound 106] | A (A=greater than 200 fold) | B (B=less than 200 fold, but greater than 20 fold) | B (B=less than 200 fold, but greater than 20 fold) | < 0.1 | 1 to 10 | < 1 | 0.1 to 1 | 0.1 to 1 | < 1 | > 1 | < 1
CC(C)Oc1ccc2cn(-c3ccccc3CNc3nc(N4CCC(N)CC4)nc4c(C(C)C)cnn34)nc2c1 [Compound 107] | A (A=greater than 200 fold) | A (A=greater than 200 fold) | B (B=less than 200 fold, but greater than 20 fold) | < 0.1 | 1 to 10 | < 1 | 0.1 to 1 | 0.1 to 1 | < 1 | > 1 | < 1
CC(C)c1cnn2c(NCc3ccccc3-c3cn4ccccc4n3)nc(N3CCC(N)CC3)nc12 [Compound 110] | B (B=less than 200 fold, but greater than 20 fold) | B (B=less than 200 fold, but greater than 20 fold) | C (C=less than 20 fold) | < 0.1 | < 1 | < 1 | < 0.1 | < 0.1 | < 1 | 0.1 to 1 | < 1
CC(C)c1cnn2c(NCc3ccccc3-c3cc4cccc(F)c4[nH]3)nc(N3CCC(N)CC3)nc12 [Compound 113] |  |  |  |  | < 1 | < 1 |  |  | < 1 |  | < 1
CC(C)c1cnn2c(NCc3ccccc3-c3cc4ccccc4[nH]3)nc(OC3CCN(C)CC3)nc12 [Compound 115] | A (A=greater than 200 fold) | B (B=less than 200 fold, but greater than 20 fold) | B (B=less than 200 fold, but greater than 20 fold) | < 0.1 | 1 to 10 |  | 0.1 to 1 | 0.1 to 1 | 1 to 10 | > 1 | < 1
CC(C)c1cnn2c(NCc3ccccc3-n3cccn3)nc(-c3ccc(Cl)c(C4CCNCC4)c3)nc12 [Compound 170] | A (A=greater than 200 fold) | B (B=less than 200 fold, but greater than 20 fold) | B (B=less than 200 fold, but greater than 20 fold) | < 0.1 | 1 to 10 | < 1 | 0.1 to 1 | > 1 | 1 to 10 | > 1 | < 1
